According to US20250228239A1, “MOLECULES HAVING PESTICIDAL UTILITY, AND INTERMEDIATES, COMPOSITIONS, AND PROCESSES, RELATED THERETO” (priority 2024, published 2025):
Like-named read-outs stand apart in the source and are kept apart here.

Assays:
[1] = tested on: Beet Armyworm (Spodoptera exigua, LAPHEG); assay: Bioassays on Beet Armyworm (BAW), 128-well diet tray assay; assay type: in vivo; conditions: Spodoptera exigua
Summary of the method: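 Eight diet wells per compound were treated at 50 μg/cm^2 (acetone-water 90:10), dried, then infested with 1–5 second-instar larvae each. After five to seven days at 25 °C under 14:10 photoperiod, mortality was scored and averaged across wells.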

[2] = tested on: Cabbage Looper (Trichoplusia ni, TRIPNI); assay: Bioassays on Cabbage Looper (CL), 128-well diet tray assay; assay type: in vivo; conditions: Trichoplusia ni
Summary of the method: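 Each of eight wells receives artificial diet treated at 50 μg/cm^2 with the test molecule, then one to five second-instar larvae. Incubation runs five to seven days at 25° C with a 14:10 light-dark cycle under vented covers. Mortality is scored per well as a percentage and averaged.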

[3] = Beet Armyworm, rating class, read-out: BAW
[4] = Cabbage Looper, rating class, read-out: CL
[5] = Table ABC: Biological Results, species BAW, read-out: BAW
[6] = Table ABC: Biological Results, species CL, read-out: CL
[7] = Beet Armyworm, Table ABC / ABC-DP rating, read-out: BAW rating
[8] = Cabbage Looper, Table ABC / ABC-DP rating, read-out: CL rating

O=C(Nc1cc(NC(=O)C(F)F)c(F)cc1F)c1cc(NC(=O)[C@H]2[C@H](c3cc(Cl)c(Cl)c(Cl)c3)C2(Cl)Cl)cc(F)c1Cl [F1404, 2-Chloro-5-((1R,3R)-2,2-dichloro-3-(3,4,5-trichlorophenyl)cyclopropane-1-carboxamido)-N-(5-(2,2-difluoroacetamido)-2,4-difluorophenyl)-3-fluorobenzamide]
pest or weed control at 50 µg/cm2 [1, 3]: 50 to 100%
pest or weed control at 50 µg/cm2 [2, 4]: 50 to 100%

O=C(Nc1ccc(F)c(O)c1F)c1cc(NC(=O)[C@H]2[C@H](c3cc(Cl)cc(Cl)c3)C2(Cl)Cl)ccc1Cl (relative stereo) [F1203, trans-2-chloro-5-(2,2-dichloro-3-(3,5-dichlorophenyl)cyclopropane-1-carboxamido)-N-(2,4-difluoro-3-hydroxyphenyl)benzamide]
pest or weed control at 50 µg/cm2 [1, 5]: 0 to 50%
pest or weed control at 50 µg/cm2 [2, 6]: 50 to 100%

CC(=O)Nc1c(C)ccc(NC(=O)c2cc(NC(=O)[C@H]3[C@H](c4cc(Cl)cc(Cl)c4)C3(Cl)Cl)ccc2Cl)c1C (relative stereo) [F1128, trans-N-(3-Acetamido-2,4-dimethylphenyl)-2-chloro-5-(2,2-dichloro-3-(3,5-dichlorophenyl)cyclopropane-1-carboxamido)benzamide]
pest or weed control at 50 µg/cm2 [1, 5]: 50 to 100%
pest or weed control at 50 µg/cm2 [2, 6]: 50 to 100%

O=C(Nc1cc(NC(=O)C(F)F)c(F)cc1F)c1cc(NC(=O)[C@H]2[C@H](c3cc(Cl)c(Cl)c(Cl)c3)C2(Cl)Cl)ccc1Cl [F1518, 2-Chloro-5-((1R,3R)-2,2-dichloro-3-(3,4,5-trichlorophenyl)cyclopropane-1-carboxamido)-N-(5-(2,2-difluoroacetamido)-2,4-difluorophenyl)benzamide]
pest or weed control at 50 µg/cm2 [1, 3]: 50 to 100%
pest or weed control at 50 µg/cm2 [2, 4]: 50 to 100%

O=C(Nc1ccc(F)c(NC(=O)C(F)(F)F)c1F)c1cc(NC(=O)[C@H]2[C@H](c3cc(Cl)c(F)c(Cl)c3)C2(Cl)Cl)ccc1Cl (relative stereo) [F1332, trans-2-Chloro-5-(2,2-dichloro-3-(3,5-dichloro-4-fluorophenyl)cyclopropane-1-carboxamido)-N-(2,4-difluoro-3-(2,2,2-trifluoroacetamido)phenyl)benzamide]
pest or weed control at 50 µg/cm2 [1, 5]: 50 to 100%
pest or weed control at 50 µg/cm2 [2, 6]: 50 to 100%

O=C(Nc1c(F)ccc(NC(=O)c2cc(NC(=O)[C@H]3[C@H](c4ccc(F)c(C(F)(F)F)c4)C3(Cl)Cl)ccc2Cl)c1F)c1cc(C(F)(F)F)no1 [F1824, N-(3-(2-Chloro-5-((1R,3R)-2,2-dichloro-3-(4-fluoro-3-(trifluoromethyl)phenyl)cyclopropane-1-carboxamido)benzamido)-2,6-difluorophenyl)-3-(trifluoromethyl)isoxazole-5-carboxamide]
pest or weed control at 50 µg/cm2 [1, 7]: 50 to 100%
pest or weed control at 50 µg/cm2 [2, 8]: 50 to 100%

O=C(Nc1c(F)ccc(NC(=O)C(F)F)c1F)c1cc(NC(=O)[C@H]2[C@H](c3ccc(Cl)c(Cl)c3)C2(Cl)Cl)cc(F)c1F [F1577, 5-((1R,3R)-2,2-Dichloro-3-(3,4-dichlorophenyl)cyclopropane-1-carboxamido)-N-(3-(2,2-difluoroacetamido)-2,6-difluorophenyl)-2,3-difluorobenzamide]
pest or weed control at 50 µg/cm2 [1, 3]: 50 to 100%
pest or weed control at 50 µg/cm2 [2, 4]: 50 to 100%

CN(C(=O)c1c(Cl)ccc(NC(=O)[C@H]2[C@H](c3ccc(F)c(Cl)c3)C2(Cl)Cl)c1Cl)c1ccc(N)cc1 (relative stereo) [F1106, trans-N-(4-Aminophenyl)-2,6-dichloro-3-(2,2-dichloro-3-(3-chloro-4-fluorophenyl)cyclopropane-1-carboxamido)-N-methylbenzamide]
pest or weed control at 50 µg/cm2 [1, 5]: 50 to 100%
pest or weed control at 50 µg/cm2 [2, 6]: 0 to 50%

Cc1cc(NCc2ccc(NC(=O)OC(C)(C)C)cc2)ccc1NC(=O)c1cc(NC(=O)[C@H]2[C@H](c3cc(Cl)cc(Cl)c3)C2(Cl)Cl)ccc1Cl (relative stereo) [F1348, trans-tert-Butyl (4-(((4-(2-chloro-5-(2,2-dichloro-3-(3,5-dichlorophenyl)cyclopropane-1-carboxamido)benzamido)-3-methylphenyl)amino)methyl)phenyl)carbamate]
pest or weed control at 50 µg/cm2 [1, 5]: 50 to 100%
pest or weed control at 50 µg/cm2 [2, 6]: 50 to 100%

CN(NC(=O)c1cc(NC(=O)[C@H]2[C@H](c3cc(Cl)cc(Cl)c3)C2(Cl)Cl)ccc1Cl)C(=O)C1CC1(F)F (relative stereo) [F2534, trans-2,2-Dichloro-N-(4-chloro-3-(2-(2,2-difluorocyclopropane-1-carbonyl)-2-methylhydrazine-1-carbonyl)phenyl)-3-(3,5-dichlorophenyl)cyclopropane-1-carboxamide]
pest or weed control at 50 µg/cm2 [1, 7]: 50 to 100%
pest or weed control at 50 µg/cm2 [2, 8]: 50 to 100%

O=C(NNC(=O)C(C(F)(F)F)C(F)(F)F)c1cc(NC(=O)[C@H]2[C@H](c3cc(Cl)cc(Cl)c3)C2(Cl)Cl)ccc1Cl (relative stereo) [F2532, trans-2,2-Dichloro-N-(4-chloro-3-(2-(3,3,3-trifluoro-2-(trifluoromethyl)propanoyl)hydrazine-1-carbonyl)phenyl)-3-(3,5-dichlorophenyl)cyclopropane-1-carboxamide]
pest or weed control at 50 µg/cm2 [1, 7]: 50 to 100%
pest or weed control at 50 µg/cm2 [2, 8]: 50 to 100%

CC(C)(C)C(=O)Nc1c(F)ccc(NC(=O)c2cc(NC(=O)[C@H]3[C@H](c4ccc(F)c(C(F)(F)F)c4)C3(Cl)Cl)ccc2Cl)c1F [F1274, 2-Chloro-5-((1R,3R)-2,2-dichloro-3-(4-fluoro-3-(trifluoromethyl)phenyl)cyclopropane-1-carboxamido)-N-(2,4-difluoro-3-pivalamidophenyl)benzamide]
pest or weed control at 50 µg/cm2 [1, 5]: 50 to 100%
pest or weed control at 50 µg/cm2 [2, 6]: 50 to 100%

CCC(=O)Nc1c(F)ccc(NC(=O)c2cc(NC(=O)[C@H]3[C@H](c4ccc(Cl)c(Cl)c4)C3(Cl)Cl)ccc2Cl)c1F [F1472, 2-Chloro-5-((1R,3R)-2,2-dichloro-3-(3,4-dichlorophenyl)cyclopropane-1-carboxamido)-N-(2,4-difluoro-3-propionamidophenyl)benzamide]
pest or weed control at 50 µg/cm2 [1, 3]: 50 to 100%
pest or weed control at 50 µg/cm2 [2, 4]: 50 to 100%

O=C(Nc1cc(Br)c(F)cc1F)c1cc(NC(=O)[C@H]2[C@H](c3cc(Cl)cc(Cl)c3)C2(Cl)Cl)ccc1Cl (relative stereo) [F1308, trans-N-(5-Bromo-2,4-difluorophenyl)-2-chloro-5-(2,2-dichloro-3-(3,5-dichlorophenyl)cyclopropane-1-carboxamido)benzamide]
pest or weed control at 50 µg/cm2 [1, 5]: 50 to 100%
pest or weed control at 50 µg/cm2 [2, 6]: 50 to 100%

O=C(Nc1c(F)ccc(NC(=O)c2cc(NC(=O)[C@H]3[C@H](c4cc(Cl)c(Cl)c(Cl)c4)C3(Cl)Cl)ccc2Cl)c1F)c1ccco1 [F1648, N-(3-(2-Chloro-5-((1R,3R)-2,2-dichloro-3-(3,4,5-trichlorophenyl)cyclopropane-1-carboxamido)benzamido)-2,6-difluorophenyl)furan-2-carboxamide]
pest or weed control at 50 µg/cm2 [1, 3]: 50 to 100%
pest or weed control at 50 µg/cm2 [2, 4]: 50 to 100%

O=C(Nc1ccc(F)c(NC(=O)C(F)F)c1F)c1cc(NC(=O)[C@H]2[C@H](c3cc(Cl)c(Cl)c(Cl)c3)C2(Cl)Cl)cc(F)c1Cl [F1335, 2-Chloro-5-((1R,3R)-2,2-dichloro-3-(3,4,5-trichlorophenyl)cyclopropane-1-carboxamido)-N-(3-(2,2-difluoroacetamido)-2,4-difluorophenyl)-3-fluorobenzamide]
pest or weed control at 50 µg/cm2 [1, 5]: 50 to 100%
pest or weed control at 50 µg/cm2 [2, 6]: 50 to 100%

O=C(NNCc1cc(F)ccc1F)c1cc(NC(=O)[C@H]2[C@H](c3cc(Cl)cc(Cl)c3)C2(Cl)Cl)ccc1Cl (relative stereo) [F2546, trans-2,2-Dichloro-N-(4-chloro-3-(2-(2,5-difluorobenzyl)hydrazine-1-carbonyl)phenyl)-3-(3,5-dichlorophenyl)cyclopropane-1-carboxamide]
pest or weed control at 50 µg/cm2 [1, 7]: 50 to 100%
pest or weed control at 50 µg/cm2 [2, 8]: 50 to 100%

CC(C(=O)Nc1c(F)ccc(NC(=O)c2cc(NC(=O)[C@H]3[C@H](c4ccc(F)c(C(F)(F)F)c4)C3(Cl)Cl)ccc2Cl)c1F)C(F)(F)F (stereo partly drawn) [F1832, 2-Chloro-5-((1R,3R)-2,2-dichloro-3-(4-fluoro-3-(trifluoromethyl)phenyl)cyclopropane-1-carboxamido)-N-(2,4-difluoro-3-(3,3,3-trifluoro-2-methylpropanamido)phenyl)benzamide]
pest or weed control at 50 µg/cm2 [1, 7]: 50 to 100%
pest or weed control at 50 µg/cm2 [2, 8]: 50 to 100%

O=C(Nc1ccc(F)c(NC(=O)C(F)F)c1F)c1cc(NC(=O)[C@H]2[C@H](c3cc(Cl)c(Cl)c(Cl)c3)C2(Cl)Cl)ccc1F [F1527, 5-((1R,3R)-2,2-Dichloro-3-(3,4,5-trichlorophenyl)cyclopropane-1-carboxamido)-N-(3-(2,2-difluoroacetamido)-2,4-difluorophenyl)-2-fluorobenzamide]
pest or weed control at 50 µg/cm2 [1, 3]: 50 to 100%
pest or weed control at 50 µg/cm2 [2, 4]: 50 to 100%

Nc1c(F)cccc1NC(=O)c1cc(NC(=O)[C@H]2[C@H](c3ccc(F)c(Cl)c3)C2(Cl)Cl)ccc1Cl [F1133, N-(2-Amino-3-fluorophenyl)-2-chloro-5-((1R,3R)-2,2-dichloro-3-(3-chloro-4-fluorophenyl)cyclopropane-1-carboxamido)benzamide]
pest or weed control at 50 µg/cm2 [1, 5]: 50 to 100%
pest or weed control at 50 µg/cm2 [2, 6]: 50 to 100%

CCNC(=O)c1cc(NC(=O)[C@H]2[C@H](c3ccc(F)c(Cl)c3)C2(Cl)Cl)cc(F)c1Cl (relative stereo) [F2033, trans-2-Chloro-5-(2,2-dichloro-3-(3-chloro-4-fluorophenyl)cyclopropane-1-carboxamido)-N-ethyl-3-fluorobenzamide]
pest or weed control at 50 µg/cm2 [1, 7]: 50 to 100%
pest or weed control at 50 µg/cm2 [2, 8]: 50 to 100%
